Test results published in ChEMBL document CHEMBL3885881, “DrugMatrix”.

Species on record: Rattus norvegicus
Experiment: DrugMatrix - Regimen: Daily Repeat
Assay type: toxicity, organism-based, Sprague-Dawley
Parameters: regimen Daily Repeat, gender Male, age 6-8 weeks
Conditions: in vivo, iv, vehicle 100 % SALINE; for ABSOLUTE BASOPHIL / ABSOLUTE EOSINOPHIL / ABSOLUTE LYMPHOCYTE / ABSOLUTE MONOCYTE / ABSOLUTE SEGMENTED NEUTROPHIL / BASOPHIL / EOSINOPHIL / ERYTHROCYTE COUNT / HEMATOCRIT / HEMOGLOBIN / LEUKOCYTE COUNT / LYMPHOCYTE / MEAN CORPUSCULAR HEMOGLOBIN / MEAN CORPUSCULAR HEMOGLOBIN CONCENTRATION / MEAN CORPUSCULAR VOLUME / MONOCYTE / NEUTROPHIL / NUCLEATED RED BLOOD CELLS / PLATELET COUNT: tissue Blood; for ALANINE AMINOTRANSFERASE / ALBUMIN / ALKALINE PHOSPHATASE / ASPARTATE AMINOTRANSFERASE / BLOOD UREA NITROGEN / CARBON DIOXIDE / CHLORIDE / CHOLESTEROL / CREATINE PHOSPHOKINASE / CREATININE / GLUCOSE / LACTATE DEHYDROGENASE / LIPASE / PHOSPHORUS / POTASSIUM / SODIUM / TOTAL BILIRUBIN / TOTAL PROTEIN / URIC ACID: tissue Plasma
[1] = 0.01 mg/kg, 72 h, dose level Low, time 3 day
[2] = 0.01 mg/kg, 120 h, dose level Low, time 5 day
[3] = 15 mg/kg, 72 h, dose level High, time 3 day

For `CC(C)NCC(O)c1ccc(O)c(O)c1` (centres undefined) [ISOPROTERENOL], the “ABSOLUTE BASOPHIL” value [1] was 0 CELLS/uL, the “ABSOLUTE EOSINOPHIL” value [1] was 134.67 CELLS/uL and the “ABSOLUTE LYMPHOCYTE” value [1] was 13411.33 CELLS/uL. The “ABSOLUTE MONOCYTE” value [1] was 299.67 CELLS/uL, the “ABSOLUTE SEGMENTED NEUTROPHIL” value [1] was 1854.33 CELLS/uL and the BASOPHIL [1] was 0%. The EOSINOPHIL [1] was 0.67%, the “ERYTHROCYTE COUNT” value [1] was 5.6 x10E6/uL and the HEMATOCRIT [1] was 34.43%. For the same compound, the HEMOGLOBIN [1] was 12.9 G/DL, the “LEUKOCYTE COUNT” value [1] was 15.7 x10E3/uL and the LYMPHOCYTE [1] was 85.33%. The “MEAN CORPUSCULAR HEMOGLOBIN” value [1] was 23.03 pg, the “MEAN CORPUSCULAR HEMOGLOBIN CONCENTRATION” value [1] was 37.47 G/DL and the “MEAN CORPUSCULAR VOLUME” value [1] was 61.43 fL. For the same compound, the MONOCYTE [1] was 2%, the NEUTROPHIL [1] was 12% and the “NUCLEATED RED BLOOD CELLS” value [1] was 0 /100WBC. For the same compound, the “PLATELET COUNT” value [1] was 1265.33 x10E3/uL, the “ALANINE AMINOTRANSFERASE” value [1] was 39.67 u/L and the ALBUMIN [1] was 4.4 G/DL. For the same compound, the “ALKALINE PHOSPHATASE” value [1] was 368 u/L, the “ASPARTATE AMINOTRANSFERASE” value [1] was 75 u/L and the “BLOOD UREA NITROGEN” value [1] was 14.33 mg/dL. The “CARBON DIOXIDE” value [1] was 25 mmol/L, the CHLORIDE [1] was 104 MEQ/L and the CHOLESTEROL [1] was 69.67 mg/dL. For the same compound, the “CREATINE PHOSPHOKINASE” value [1] was 196.33 u/L, the CREATININE [1] was 0.24 mg/dL and the GLUCOSE [1] was 149.67 mg/dL. For the same compound, the “LACTATE DEHYDROGENASE” value [1] was 289 u/L, the LIPASE [1] was 9.67 u/L and the PHOSPHORUS [1] was 13.47 mg/dL. For the same compound, the POTASSIUM [1] was 6.71 MEQ/L, the SODIUM [1] was 146.07 MEQ/L and the “TOTAL BILIRUBIN” value [1] was 0.2 mg/dL. The “TOTAL PROTEIN” value [1] was 5.97 G/DL, the “URIC ACID” value [1] was 2.17 mg/dL and the “ABSOLUTE BASOPHIL” value [2] was 0 CELLS/uL. The “ABSOLUTE EOSINOPHIL” value [2] was 0 CELLS/uL, the “ABSOLUTE LYMPHOCYTE” value [2] was 15742 CELLS/uL and the “ABSOLUTE MONOCYTE” value [2] was 224 CELLS/uL. The “ABSOLUTE SEGMENTED NEUTROPHIL” value [2] was 800.67 CELLS/uL, the BASOPHIL [2] was 0% and the EOSINOPHIL [2] was 0%. For the same compound, the “ERYTHROCYTE COUNT” value [2] was 5.33 x10E6/uL, the HEMATOCRIT [2] was 32.33% and the HEMOGLOBIN [2] was 12.57 G/DL. The “LEUKOCYTE COUNT” value [2] was 16.77 x10E3/uL, the LYMPHOCYTE [2] was 94% and the “MEAN CORPUSCULAR HEMOGLOBIN” value [2] was 23.6 pg. The “MEAN CORPUSCULAR HEMOGLOBIN CONCENTRATION” value [2] was 38.9 G/DL, the “MEAN CORPUSCULAR VOLUME” value [2] was 60.67 fL and the MONOCYTE [2] was 1.33%. For the same compound, the NEUTROPHIL [2] was 4.67%, the “NUCLEATED RED BLOOD CELLS” value [2] was 0 /100WBC and the “PLATELET COUNT” value [2] was 1122.67 x10E3/uL. The “ALANINE AMINOTRANSFERASE” value [2] was 81 u/L, the ALBUMIN [2] was 3.6 G/DL and the “ALKALINE PHOSPHATASE” value [2] was 310 u/L. For the same compound, the “ASPARTATE AMINOTRANSFERASE” value [2] was 65 u/L, the “BLOOD UREA NITROGEN” value [2] was 16.67 mg/dL and the “CARBON DIOXIDE” value [2] was 24 mmol/L. The CHLORIDE [2] was 107.5 MEQ/L, the CHOLESTEROL [2] was 61.33 mg/dL and the “CREATINE PHOSPHOKINASE” value [2] was 282.67 u/L. The CREATININE [2] was 0.3 mg/dL, the GLUCOSE [2] was 161.67 mg/dL and the “LACTATE DEHYDROGENASE” value [2] was 140 u/L. For the same compound, the LIPASE [2] was 11 u/L, the PHOSPHORUS [2] was 11.23 mg/dL and the POTASSIUM [2] was 6.08 MEQ/L. The SODIUM [2] was 146.4 MEQ/L, the “TOTAL BILIRUBIN” value [2] was 0.13 mg/dL and the “TOTAL PROTEIN” value [2] was 5.73 G/DL. The “URIC ACID” value [2] was 1.3 mg/dL, the “ABSOLUTE BASOPHIL” value [3] was 0 CELLS/uL and the “ABSOLUTE EOSINOPHIL” value [3] was 47.67 CELLS/uL. The “ABSOLUTE LYMPHOCYTE” value [3] was 15188.67 CELLS/uL, the “ABSOLUTE MONOCYTE” value [3] was 404 CELLS/uL and the “ABSOLUTE SEGMENTED NEUTROPHIL” value [3] was 1159.67 CELLS/uL. The BASOPHIL [3] was 0%, the EOSINOPHIL [3] was 0.33% and the “ERYTHROCYTE COUNT” value [3] was 5.66 x10E6/uL. The HEMATOCRIT [3] was 36.93%, the HEMOGLOBIN [3] was 13.6 G/DL and the “LEUKOCYTE COUNT” value [3] was 16.8 x10E3/uL. For the same compound, the LYMPHOCYTE [3] was 90.67%, the “MEAN CORPUSCULAR HEMOGLOBIN” value [3] was 24 pg and the “MEAN CORPUSCULAR HEMOGLOBIN CONCENTRATION” value [3] was 36.83 G/DL. For the same compound, the “MEAN CORPUSCULAR VOLUME” value [3] was 65.2 fL, the MONOCYTE [3] was 2.33% and the NEUTROPHIL [3] was 6.67%. The “NUCLEATED RED BLOOD CELLS” value [3] was 0 /100WBC, the “PLATELET COUNT” value [3] was 1372 x10E3/uL and the “ALANINE AMINOTRANSFERASE” value [3] was 39 u/L. For the same compound, the ALBUMIN [3] was 4.1 G/DL, the “ALKALINE PHOSPHATASE” value [3] was 370.67 u/L and the “ASPARTATE AMINOTRANSFERASE” value [3] was 73.67 u/L. The “BLOOD UREA NITROGEN” value [3] was 19.33 mg/dL, the “CARBON DIOXIDE” value [3] was 24.67 mmol/L and the CHLORIDE [3] was 106 MEQ/L. The CHOLESTEROL [3] was 80.33 mg/dL, the “CREATINE PHOSPHOKINASE” value [3] was 282.67 u/L and the CREATININE [3] was 0.17 mg/dL. The GLUCOSE [3] was 151.33 mg/dL, the “LACTATE DEHYDROGENASE” value [3] was 128.33 u/L and the LIPASE [3] was 9 u/L. For the same compound, the PHOSPHORUS [3] was 10.87 mg/dL.
